Target: T1, leukotriene induced contraction of guinea pig tracheal tissues (LTD4) (Cavia porcellus, UniProt Q2NNR5)
T1 construct: Guinea pig (adult male albino Hartley strain) tracheal spiral strips; from tissue; host or cells: guinea pig (adult male albino Hartley strain) tracheal spiral strips
T1 sequence (Q2NNR5 1-340): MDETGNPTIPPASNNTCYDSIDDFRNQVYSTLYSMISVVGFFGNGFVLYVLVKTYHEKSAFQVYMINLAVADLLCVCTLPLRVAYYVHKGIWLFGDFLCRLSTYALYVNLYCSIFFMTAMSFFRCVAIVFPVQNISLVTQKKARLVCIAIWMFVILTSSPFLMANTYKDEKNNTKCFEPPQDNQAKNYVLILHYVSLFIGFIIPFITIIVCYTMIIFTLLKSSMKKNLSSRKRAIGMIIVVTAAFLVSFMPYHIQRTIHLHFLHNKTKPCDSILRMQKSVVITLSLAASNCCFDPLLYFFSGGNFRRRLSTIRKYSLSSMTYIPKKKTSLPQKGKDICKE
Assay: Inhibition of LTD4-induced contraction of guinea pig tracheal spiral strips in vitro (leukotriene antagonist activity)
Assay type: cell-based
Conditions: LTD4 cumulative concentration-response, 30 min pretreatment with test compound, meclofenamic acid 1 μM, pA2 = -log KB from EC30 (30% of carbachol contraction)
Description: The leukotriene antagonist activity of the compounds of this invention is measured by the ability of the compound to inhibit leukotriene induced contraction of guinea pig tracheal tissues in vitro. The following methodology was employed:
In vitro: Guinea pig (adult male albino Hartley strain) tracheal spiral strips of approximate dimensions 2 to 3 mm cross-sectional width and 3.5 cm length were bathed in modified Krebs buffer in jacketed 10 ml tissue bath and continously aerated with 95% O2 /5% CO2. The tissues were connected via silk suture to force displacement transducers for recording isometric tension. The tissues were equilibrated for 1 hr., pretreated for 15 minutes with meclofenamic acid (1 μM) to remove intrinsic prostaglandin responses, and then pretreated for an additional 30 minutes with either the test compound or vehicle control. A cumulative concentration-response curve for LTD4 on triplicate tissues was generated by successive increases in the bath concentration of the LTD4. […]
Calculations: The averages of the triplicate LTD4 concentration-response curves both in the presence and absence of the test compound were plotted on log graph paper. The concentration of LTD4 needed to elicit 30% of the contraction elicited by carbachol was measured and defined as the EC30. The pA2 value for the test compound was determined by the following equations: [formula] […]

Kb: 6.31 µM
Structure (SMILES): CCCCCCCCCCCC/C=C\C(SCCC(=O)O)C(O)CO (stereo not shown) [3-[(2-Carboxyethyl)thio]-4(Z)-heptadecen-1,2-diol]

Reference: US4552893A, “Leukotriene antagonists” (SmithKline Beckman Corporation, priority 1983, dated 1985)
